Laboratory results taken from patent publication US5604234A, “Substituted thiol macrolactam immunomodulators” (Abbott Laboratories, priority 1995, dated 1997).

system: human mixed lymphocyte reaction (MLR); assay: human mixed lymphocyte reaction (MLR), serum free variation; assay type: cell-based; conditions: Homo sapiens, Lymphocyte, serum-free medium AIM V, Table 3
Procedure: In vitro Assay of Biological Activity (Serum Free MLR)
The in viitro immunosuppressant activity of the compounds of the present invention can also be determined using a variation of the human mixed lymphocyte reaction (MLR) assay described by Kino, T. et al. in Transplantation Proceedings, XIX(5):36-39, Suppl. 6 (1987). In this assay, the cell culture was performed in a serum-free medium, AIM V (GibcoBRL Life Technologies, Grand Island, N.Y.), instead of the usual RPMI 1640 plus 10% heat-inactivated fetal bovine serum medium. The final cell concentrations of the responder and stimulator peripheral blood mononuclear cells were, respectively, 5×10^5/mL and 2×10^6/mL of cells pooled from four donors.

IC50 [nM]	SMILES
5.4	CCC(CC)OC(=O)CCSC1CCC(C=C(C)C2OC(=O)C3CCCCN3C(=O)C(=O)C3(O)OC(C(OC)CC(C)CC(C)=CC(CC)C(=O)CC(O)C2C)C(OC)CC3C)CC1OC (centres unmarked) [Example 21]
47	CCC1C=C(C)CC(C)CC(OC)C2OC(O)(C(=O)C(=O)N3CCCCC3C(=O)OC(C(C)=CC3CCC(SCC(=O)OCC(F)(F)F)C(OC)C3)C(C)C(O)CC1=O)C(C)CC2OC (centres unmarked) [Example 33]
0.61	CCC(=O)S[C@H]1CC[C@@H](/C=C(\C)[C@H]2OC(=O)[C@@H]3CCCCN3C(=O)C(=O)[C@]3(O)O[C@H]([C@@H](OC)C[C@@H](C)C/C(C)=C/[C@@H](CC)C(=O)C[C@H](O)[C@H]2C)[C@@H](OC)C[C@H]3C)C[C@H]1OC [Example 88]
2.6	CC[C@@H]1/C=C(\C)C[C@H](C)C[C@H](OC)[C@H]2O[C@@](O)(C(=O)C(=O)N3CCCC[C@H]3C(=O)O[C@H](/C(C)=C/[C@@H]3CC[C@H](SC(=O)CNC(N)=O)[C@H](OC)C3)[C@H](C)[C@@H](O)CC1=O)[C@H](C)C[C@@H]2OC [Example 121]
1.5	CCC1C=C(C)CC(C)CC(OC)C2OC(O)(C(=O)C(=O)N3CCCCC3C(=O)OC(C(C)=CC3CCC(SCCC(=O)OC(C)(C)C)C(OC)C3)C(C)C(O)CC1=O)C(C)CC2OC (centres unmarked) [Example 15]
8.9	CCC1C=C(C)CC(C)CC(OC)C2OC(O)(C(=O)C(=O)N3CCCCC3C(=O)OC(C(C)=CC3CCC(SCCC(=O)OC)C(OC)C3)C(C)C(O)CC1=O)C(C)CC2OC (centres unmarked) [Example 9]
4.8	CCC1C=C(C)CC(C)CC(OC)C2OC(O)(C(=O)C(=O)N3CCCCC3C(=O)OC(C(C)=CC3CCC(SCC(=O)N(C)O)C(OC)C3)C(C)C(O)CC1=O)C(C)CC2OC (centres unmarked) [Example 39]
3.1	CCC1C=C(C)CC(C)CC(OC)C2OC(O)(C(=O)C(=O)N3CCCCC3C(=O)OC(C(C)=CC3CCC(SCCC(=O)OCCO)C(OC)C3)C(C)C(O)CC1=O)C(C)CC2OC (centres unmarked) [Example 13]
3.5	CC[C@@H]1/C=C(\C)C[C@H](C)C[C@H](OC)[C@H]2O[C@@](O)(C(=O)C(=O)N3CCCC[C@H]3C(=O)O[C@H](/C(C)=C/[C@@H]3CC[C@H](SC(=O)CO)[C@H](OC)C3)[C@H](C)[C@@H](O)CC1=O)[C@H](C)C[C@@H]2OC [Example 125]
22.6	CC[C@@H]1/C=C(\C)C[C@H](C)C[C@H](OC)[C@H]2O[C@@](O)(C(=O)C(=O)N3CCCC[C@H]3C(=O)O[C@H](/C(C)=C/[C@@H]3CC[C@H](SCC(C)C(=O)O)[C@H](OC)C3)[C@H](C)[C@@H](O)CC1=O)[C@H](C)C[C@@H]2OC (some centres unmarked) [Example 43]
70	CC[C@@H]1/C=C(\C)C[C@H](C)C[C@H](OC)[C@H]2O[C@@](O)(C(=O)C(=O)N3CCCC[C@H]3C(=O)O[C@H](/C(C)=C/[C@@H]3CC[C@H](SCC(C)=NO)[C@H](OC)C3)[C@H](C)[C@@H](O)CC1=O)[C@H](C)C[C@@H]2OC [Example 83A]

The next lines start with the compound.

SMILES	IC50 [nM]
CC[C@@H]1/C=C(\C)C[C@H](C)C[C@H](OC)[C@H]2O[C@@](O)(C(=O)C(=O)N3CCCC[C@H]3C(=O)O[C@H](/C(C)=C/[C@@H]3CC[C@H](SC(=O)CNC(C)=O)[C@H](OC)C3)[C@H](C)[C@@H](O)CC1=O)[C@H](C)C[C@@H]2OC [Example 115]	0.02
CC[C@@H]1/C=C(\C)C[C@H](C)C[C@H](OC)[C@H]2O[C@@](O)(C(=O)C(=O)N3CCCC[C@H]3C(=O)O[C@H](/C(C)=C/[C@@H]3CC[C@H]([S+]([O-])CCC(=O)OCc4ccccc4)[C@H](OC)C3)[C@H](C)[C@@H](O)CC1=O)[C@H](C)C[C@@H]2OC (some centres unmarked) [Example 63]	15
CC[C@@H]1/C=C(\C)C[C@H](C)C[C@H](OC)[C@H]2O[C@@](O)(C(=O)C(=O)N3CCCC[C@H]3C(=O)O[C@H](/C(C)=C/[C@@H]3CC[C@H](SC(=O)c4ccccc4OC(C)=O)[C@H](OC)C3)[C@H](C)[C@@H](O)CC1=O)[C@H](C)C[C@@H]2OC [Example 112]	0.49
CCC1C=C(C)CC(C)CC(OC)C2OC(O)(C(=O)C(=O)N3CCCCC3C(=O)OC(C(C)=CC3CCC(SCCC(=O)N4CCOCC4)C(OC)C3)C(C)C(O)CC1=O)C(C)CC2OC (centres unmarked) [Example 23]	0.04
CC[C@@H]1/C=C(\C)C[C@H](C)C[C@H](OC)[C@H]2O[C@@](O)(C(=O)C(=O)N3CCCC[C@H]3C(=O)O[C@H](/C(C)=C/[C@@H]3CC[C@H](SC(=O)CCNC(C)=O)[C@H](OC)C3)[C@H](C)[C@@H](O)CC1=O)[C@H](C)C[C@@H]2OC [Example 116]	3.1
CC[C@@H]1/C=C(\C)C[C@H](C)C[C@H](OC)[C@H]2O[C@@](O)(C(=O)C(=O)N3CCCC[C@H]3C(=O)O[C@H](/C(C)=C/[C@@H]3CC[C@H](S(=O)(=O)CC(=O)OC)[C@H](OC)C3)[C@H](C)[C@@H](O)CC1=O)[C@H](C)C[C@@H]2OC [Example 57]	2
CC[C@@H]1/C=C(\C)C[C@H](C)C[C@H](OC)[C@H]2O[C@@](O)(C(=O)C(=O)N3CCCC[C@H]3C(=O)O[C@H](/C(C)=C/[C@@H]3CC[C@H](SC(=O)N(C)C)[C@H](OC)C3)[C@H](C)[C@@H](O)CC1=O)[C@H](C)C[C@@H]2OC [Example 96]	0.1
CC[C@@H]1/C=C(\C)C[C@H](C)C[C@H](OC)[C@H]2O[C@@](O)(C(=O)C(=O)N3CCCC[C@H]3C(=O)O[C@H](/C(C)=C/[C@@H]3CC[C@H](S(=O)(=O)CC(=O)OCc4ccccc4)[C@H](OC)C3)[C@H](C)[C@@H](O)CC1=O)[C@H](C)C[C@@H]2OC [Example 56]	8.1
CCC1C=C(C)CC(C)CC(OC)C2OC(O)(C(=O)C(=O)N3CCCCC3C(=O)OC(C(C)=CC3CCC(SCC(C)C(=O)OCc4ccccc4)C(OC)C3)C(C)C(O)CC1=O)C(C)CC2OC (centres unmarked) [Example 42]	63.4
CC[C@@H]1/C=C(\C)C[C@H](C)C[C@H](OC)[C@H]2O[C@@](O)(C(=O)C(=O)N3CCCC[C@H]3C(=O)O[C@H](/C(C)=C/[C@@H]3CC[C@H](SC(=O)C(C)(C)C)[C@H](OC)C3)[C@H](C)[C@@H](O)CC1=O)[C@H](C)C[C@@H]2OC [Example 85]	0.48
CC[C@@H]1/C=C(\C)C[C@H](C)C[C@H](OC)[C@H]2O[C@@](O)(C(=O)C(=O)N3CCCC[C@H]3C(=O)O[C@H](/C(C)=C/[C@@H]3CC[C@H](S(=O)(=O)CCO)[C@H](OC)C3)[C@H](C)[C@@H](O)CC1=O)[C@H](C)C[C@@H]2OC [Example 51]	0.17
CC[C@@H]1/C=C(\C)C[C@H](C)C[C@H](OC)[C@H]2O[C@@](O)(C(=O)C(=O)N3CCCC[C@H]3C(=O)O[C@H](/C(C)=C/[C@@H]3CC[C@H](SC(=O)c4ccncc4)[C@H](OC)C3)[C@H](C)[C@@H](O)CC1=O)[C@H](C)C[C@@H]2OC [Example 114]	0.14
CC[C@@H]1/C=C(\C)C[C@H](C)C[C@H](OC)[C@H]2O[C@@](O)(C(=O)C(=O)N3CCCC[C@H]3C(=O)O[C@H](/C(C)=C/[C@@H]3CC[C@H](S(=O)(=O)CCC(=O)OCc4ccccc4)[C@H](OC)C3)[C@H](C)[C@@H](O)CC1=O)[C@H](C)C[C@@H]2OC [Example 64]	9.2
CCOC(=O)CS(=O)(=O)[C@H]1CC[C@@H](/C=C(\C)[C@H]2OC(=O)[C@@H]3CCCCN3C(=O)C(=O)[C@]3(O)O[C@H]([C@@H](OC)C[C@@H](C)C/C(C)=C/[C@@H](CC)C(=O)C[C@H](O)[C@H]2C)[C@@H](OC)C[C@H]3C)C[C@H]1OC [Example 59]	7.5
CCOC(=O)CCS(=O)(=O)[C@H]1CC[C@@H](/C=C(\C)[C@H]2OC(=O)[C@@H]3CCCCN3C(=O)C(=O)[C@]3(O)O[C@H]([C@@H](OC)C[C@@H](C)C/C(C)=C/[C@@H](CC)C(=O)C[C@H](O)[C@H]2C)[C@@H](OC)C[C@H]3C)C[C@H]1OC [Example 61]	2.5
